Consider eight compounds from the supplement of paper PMC8967900.
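Further: ALL cell lines in 384-well plates, five doses spanning 10,000-fold, each plate scaled between vehicle and 100 µmol/L benzalkonium chloride controls, sDSS an adapted area-under-curve metric.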

The first assay relates to KASUMI-10. The assay is described as follows: selective drug sensitivity score (sDSS, relative to normal bone marrow) (sDSS (score)); higher = more potent and effective on the cell line relative to normal bone marrow cells. The settings on record: 72 h.
In the case of `C[C@@H](Oc1ccc2[nH]nc(/C=C/c3cnn(CCO)c3)c2c1)c1c(Cl)cncc1Cl` (top concentration 1000 nM), the “selective drug sensitivity score” value stood at 5.46.

On to `Cc1cc(C(C)Nc2ccccc2)c2nc(N3CCOCC3)cc(=O)n2c1` (stereo not given) [TGX-221] (top concentration 10000 nM), for which the “selective drug sensitivity score” value is -1.64.

For `Cc1nc(-c2cn3c(n2)-c2ccc(-c4cnn(C(C)(C)C(N)=O)c4)cc2OCC3)n(C(C)C)n1` [Taselisib] (top concentration 1000 nM), the “selective drug sensitivity score” value is 1.7.

On to `O=C(Nc1cccc(Nc2ncc(Br)c(NCCc3cnc[nH]3)n2)c1)N1CCCC1` [BX-912] (top concentration 10000 nM), for which the “selective drug sensitivity score” value was found to be 12.8.

Consider `NS(=O)(=O)OC[C@@H]1C[C@@H](n2ccc3c(N[C@H]4CCc5ccccc54)ncnc32)C[C@@H]1O` [Pevonedistat] (top concentration 10000 nM), for which the “selective drug sensitivity score” value amounted to 19.1.

As to `N#Cc1ccc(COC[C@H]2O[C@@H](n3c(NCc4ccc(Cl)c(Cl)c4)nc4c(N)ncnc43)[C@H](O)[C@@H]2O)cc1` (top concentration 10000 nM), the “selective drug sensitivity score” value is -0.68.

In the case of `C=C1C[C@@H]2[C@H](CC[C@]3(C)C(=O)CC[C@@H]23)[C@@]2(C)C=CC(=O)C=C12` [Exemestane] (top concentration 10000 nM), the “selective drug sensitivity score” value was -1.9.

As to `NCC(=O)Nc1ccc(-n2nc(C(F)(F)F)cc2-c2ccc3c(ccc4ccccc43)c2)cc1` (top concentration 25000 nM), the “selective drug sensitivity score” value was determined as 0.

A further assay relates to ALL-PO. The description is as above. The settings on record: 72 h.
For `C[C@@H](Oc1ccc2[nH]nc(/C=C/c3cnn(CCO)c3)c2c1)c1c(Cl)cncc1Cl` (top concentration 1000 nM), the “selective drug sensitivity score” value turned out to be 4.96.

For the compound `Cc1cc(C(C)Nc2ccccc2)c2nc(N3CCOCC3)cc(=O)n2c1` (stereo not given) [TGX-221] (top concentration 10000 nM), the “selective drug sensitivity score” value is 1.16.

Take `Cc1nc(-c2cn3c(n2)-c2ccc(-c4cnn(C(C)(C)C(N)=O)c4)cc2OCC3)n(C(C)C)n1` [Taselisib] (top concentration 1000 nM): the “selective drug sensitivity score” value was determined as 13.2.

With `O=C(Nc1cccc(Nc2ncc(Br)c(NCCc3cnc[nH]3)n2)c1)N1CCCC1` [BX-912] (top concentration 10000 nM), the “selective drug sensitivity score” value came out at 14.

`NS(=O)(=O)OC[C@@H]1C[C@@H](n2ccc3c(N[C@H]4CCc5ccccc54)ncnc32)C[C@@H]1O` [Pevonedistat] (top concentration 10000 nM): the “selective drug sensitivity score” value turned out to be 12.7.

In the case of `N#Cc1ccc(COC[C@H]2O[C@@H](n3c(NCc4ccc(Cl)c(Cl)c4)nc4c(N)ncnc43)[C@H](O)[C@@H]2O)cc1` (top concentration 10000 nM), the “selective drug sensitivity score” value worked out at 4.82.

In the case of `C=C1C[C@@H]2[C@H](CC[C@]3(C)C(=O)CC[C@@H]23)[C@@]2(C)C=CC(=O)C=C12` [Exemestane] (top concentration 10000 nM), the “selective drug sensitivity score” value was -1.9.

`NCC(=O)Nc1ccc(-n2nc(C(F)(F)F)cc2-c2ccc3c(ccc4ccccc43)c2)cc1` (top concentration 25000 nM): the “selective drug sensitivity score” value was 7.7.

For the next assay, the system named is KOPN-8. The description is as above. The settings on record: 72 h.
As to `C[C@@H](Oc1ccc2[nH]nc(/C=C/c3cnn(CCO)c3)c2c1)c1c(Cl)cncc1Cl` (top concentration 1000 nM), the “selective drug sensitivity score” value was -2.44.

As for `Cc1cc(C(C)Nc2ccccc2)c2nc(N3CCOCC3)cc(=O)n2c1` (stereo not given) [TGX-221] (top concentration 10000 nM), the “selective drug sensitivity score” value was -1.64.

With `Cc1nc(-c2cn3c(n2)-c2ccc(-c4cnn(C(C)(C)C(N)=O)c4)cc2OCC3)n(C(C)C)n1` [Taselisib] (top concentration 1000 nM), the “selective drug sensitivity score” value was -0.9.

Take `O=C(Nc1cccc(Nc2ncc(Br)c(NCCc3cnc[nH]3)n2)c1)N1CCCC1` [BX-912] (top concentration 10000 nM): the “selective drug sensitivity score” value amounted to 12.4.

On to `NS(=O)(=O)OC[C@@H]1C[C@@H](n2ccc3c(N[C@H]4CCc5ccccc54)ncnc32)C[C@@H]1O` [Pevonedistat] (top concentration 10000 nM), for which the “selective drug sensitivity score” value is 13.

Regarding `N#Cc1ccc(COC[C@H]2O[C@@H](n3c(NCc4ccc(Cl)c(Cl)c4)nc4c(N)ncnc43)[C@H](O)[C@@H]2O)cc1` (top concentration 10000 nM), the “selective drug sensitivity score” value worked out at 2.02.

In the case of `C=C1C[C@@H]2[C@H](CC[C@]3(C)C(=O)CC[C@@H]23)[C@@]2(C)C=CC(=O)C=C12` [Exemestane] (top concentration 10000 nM), the “selective drug sensitivity score” value worked out at 5.8.

On to `NCC(=O)Nc1ccc(-n2nc(C(F)(F)F)cc2-c2ccc3c(ccc4ccccc43)c2)cc1` (top concentration 25000 nM), for which the “selective drug sensitivity score” value amounted to 7.4.

Another assay relates to HAL-01. The description is as above. The settings on record: 72 h.
In the case of `C[C@@H](Oc1ccc2[nH]nc(/C=C/c3cnn(CCO)c3)c2c1)c1c(Cl)cncc1Cl` (top concentration 1000 nM), the “selective drug sensitivity score” value came out at 1.36.

As to `Cc1cc(C(C)Nc2ccccc2)c2nc(N3CCOCC3)cc(=O)n2c1` (stereo not given) [TGX-221] (top concentration 10000 nM), the “selective drug sensitivity score” value is 7.86.

Consider `Cc1nc(-c2cn3c(n2)-c2ccc(-c4cnn(C(C)(C)C(N)=O)c4)cc2OCC3)n(C(C)C)n1` [Taselisib] (top concentration 1000 nM), for which the “selective drug sensitivity score” value amounted to 11.1.

Take `O=C(Nc1cccc(Nc2ncc(Br)c(NCCc3cnc[nH]3)n2)c1)N1CCCC1` [BX-912] (top concentration 10000 nM): the “selective drug sensitivity score” value was -3.64.

For `NS(=O)(=O)OC[C@@H]1C[C@@H](n2ccc3c(N[C@H]4CCc5ccccc54)ncnc32)C[C@@H]1O` [Pevonedistat] (top concentration 10000 nM), the “selective drug sensitivity score” value was -3.5.

Turning to `N#Cc1ccc(COC[C@H]2O[C@@H](n3c(NCc4ccc(Cl)c(Cl)c4)nc4c(N)ncnc43)[C@H](O)[C@@H]2O)cc1` (top concentration 10000 nM), the “selective drug sensitivity score” value was determined as 0.42.

As to `C=C1C[C@@H]2[C@H](CC[C@]3(C)C(=O)CC[C@@H]23)[C@@]2(C)C=CC(=O)C=C12` [Exemestane] (top concentration 10000 nM), the “selective drug sensitivity score” value was 3.8.

As for `NCC(=O)Nc1ccc(-n2nc(C(F)(F)F)cc2-c2ccc3c(ccc4ccccc43)c2)cc1` (top concentration 25000 nM), the “selective drug sensitivity score” value turned out to be 5.5.

A further assay relates to 380. The assay is described as above. Particulars: 72 h.
`C[C@@H](Oc1ccc2[nH]nc(/C=C/c3cnn(CCO)c3)c2c1)c1c(Cl)cncc1Cl` (top concentration 1000 nM): the “selective drug sensitivity score” value is -1.34.

On to `Cc1cc(C(C)Nc2ccccc2)c2nc(N3CCOCC3)cc(=O)n2c1` (stereo not given) [TGX-221] (top concentration 10000 nM), for which the “selective drug sensitivity score” value was -1.64.

For `Cc1nc(-c2cn3c(n2)-c2ccc(-c4cnn(C(C)(C)C(N)=O)c4)cc2OCC3)n(C(C)C)n1` [Taselisib] (top concentration 1000 nM), the “selective drug sensitivity score” value is 7.4.

Turning to `O=C(Nc1cccc(Nc2ncc(Br)c(NCCc3cnc[nH]3)n2)c1)N1CCCC1` [BX-912] (top concentration 10000 nM), the “selective drug sensitivity score” value was 8.26.

For `NS(=O)(=O)OC[C@@H]1C[C@@H](n2ccc3c(N[C@H]4CCc5ccccc54)ncnc32)C[C@@H]1O` [Pevonedistat] (top concentration 10000 nM), the “selective drug sensitivity score” value turned out to be 8.5.

As for `N#Cc1ccc(COC[C@H]2O[C@@H](n3c(NCc4ccc(Cl)c(Cl)c4)nc4c(N)ncnc43)[C@H](O)[C@@H]2O)cc1` (top concentration 10000 nM), the “selective drug sensitivity score” value is -0.98.

With `C=C1C[C@@H]2[C@H](CC[C@]3(C)C(=O)CC[C@@H]23)[C@@]2(C)C=CC(=O)C=C12` [Exemestane] (top concentration 10000 nM), the “selective drug sensitivity score” value was determined as 7.7.

`NCC(=O)Nc1ccc(-n2nc(C(F)(F)F)cc2-c2ccc3c(ccc4ccccc43)c2)cc1` (top concentration 25000 nM): the “selective drug sensitivity score” value is 9.6.
